From US5002952A, “Readily absorbed pharmaceutical composition” (priority 1986, dated 1991)

System: L-1210 leukemia cells
Experiment: Antitumour activities (survival of BDF1 mice inoculated intraperitoneally with L-1210 leukemia cells, oral test drug)
Procedure: To BDF1 mice (male, 20-22 g), L-1210 leukemia cells were intraperitoneally inoculated in an amount of 1×10^6 cells/mouse. One day later and 4 days later, a test drug was orally administered. […] Therefore, in this test, Compound No. 3, and a 10 w/v% HCO60 solution were mixed, and pulverized in a wet system to obtain a liquid suspension, and the liquid suspension was administered to each mouse in an amount of 0.5 ml.
The activity was evaluated by a survival rate [T/C (%)]as compared with a control group to which a physiological saline was administered, and T/C values are shown in Table 2.

## O=C(NC(=O)c1ccccc1[N+](=O)[O-])Nc1ccc(Oc2ncc(Br)cn2)c(Cl)c1 [Compound No. 3]
High dose region, composition wet pulverized with HCO60
  toxicity (T/C): less than 100%
Wet pulverized in the absence of HCO60, same dose
  antitumour activity (in words): no substantial antitumour activity was observed
Wet pulverized together with the specific substance (HCO60)
  antitumour activity (in words): adequate antitumour activity
